Results taken from patent US8618046B2, “Treatment of atherosclerosis with cholesterol ester transport protein mimotopes” (Affiris AG, priority 2007, dated 2013).

System: monoclonal antibody “Frida”
Experiment: In vitro inhibition (competition) ELISA with mAb Frida on coated original CETP epitope
Format: binding, mouse
Settings: for inhibition ELISA signal, high / inhibition ELISA signal, low / inhibition ELISA signal, 2 μg peptide / inhibition ELISA signal, 20 μg peptide: 2.5 ng mAb Frida; for inhibition ELISA signal, high / inhibition ELISA signal, low / inhibition ELISA signal, first value column / inhibition ELISA signal, second value column / inhibition ELISA signal, 2 μg peptide / inhibition ELISA signal, 20 μg peptide: detection αIgG1; for inhibition ELISA signal, high: high peptide amount; for inhibition ELISA signal, low: low peptide amount; for inhibition ELISA signal, first value column / inhibition ELISA signal, second value column: FIG. 18b, column without head; for inhibition ELISA signal, 2 μg peptide / inhibition ELISA signal, 20 μg peptide: coat 1 μM peptide; for inhibition in in vitro competition ELISA, mAb “Frida” (in words): monoclonal antibodies “Frida” and, where stated, “James”
Description: Different amounts of peptides (2 and 20 μg, as indicated in the respective figures) derived from Phage Display were incubated with the monoclonal antibody that was used for the screening procedure. Peptides diminishing subsequent binding of the antibody to the original CETP epitope (C-terminal 16 amino acids of CETP protein) coated on ELISA plates were considered as inhibiting. (Results see i.a. FIGS. 19a to 19c)

[1] = FIG. 18a, coat 1 μM 4073 peptide

Substance	inhibition ELISA signal, high [1]	inhibition ELISA signal, low [1]	inhibition ELISA signal, first value column (coat 1 μM 4073 peptide)	inhibition ELISA signal, second value column (coat 1 μM 4073 peptide)	other results
C-FGFPAHFSIDWLQSLS (N-terminal cysteine; CETP mimotope) [p4475]	1.429	2.211			
C-FGFPAHVFIDWLQ (N-terminal cysteine; CETP mimotope) [p4631]			2.111	2.147	
C-FGFPSHLIIDWLQSLS (N-terminal Cys; CETP mimotope) [p4325]					inhibition ELISA signal, 2 μg peptide (FIG. 10b): 0.42; inhibition ELISA signal, 20 μg peptide (FIG. 10b): 0.1
C-GFKPAHVFIDWLQSLS (N-terminal cysteine; CETP mimotope) [p4479]	1.591	2.165			
C-PAHVFIDWLQ (N-terminal cysteine; CETP mimotope) [p4820]			2.310	2.374	
C-GFPEHLLVDFLQSLS (N-terminal Cys) [reference compound]					inhibition in in vitro competition ELISA, mAb “Frida” (in words): inhibiting in vitro
C-FGFPAHVYIDWLQ (N-terminal cysteine; CETP mimotope) [p4630]			2.131	2.115	
FGFPAHVFIDWLQSLN-C [p5068]			0.757	0.271	
C-AAFPAHAAADFLQALA (N-terminal Cys; CETP mimotope) [p4435]					inhibition ELISA signal, high (FIG. 18c, coat 1 μM 4073): 1.969; inhibition ELISA signal, low (FIG. 18c, coat 1 μM 4073): 1.281
C-DFGFPAHVLIDWLQSLN (N-terminal cysteine; CETP mimotope) [p4990]			0.263	0.073	
C-DFGFPAHVTIDWLQSLN (N-terminal cysteine; CETP mimotope) [p4989]			0.932	0.274	
FGFPEHLLVDFLQSLS-C (C-terminal Cys; CETP mimotope) [p1208, positive control peptide, reference compound]	0.093	0.712	0.264	0.079	inhibition ELISA signal, high (FIG. 18c, coat 1 μM 4073): 0.101; inhibition ELISA signal, low (FIG. 18c, coat 1 μM 4073): 0.942
C-PAHVYIDWLQSLS (N-terminal cysteine; CETP mimotope) [p4629]			0.313	0.118	
C-FGFPEHLLVDFLQS [reference compound]					inhibition in in vitro competition ELISA, mAb “Frida” (in words): not inhibiting in vitro
C-FPEHLLVDFLQSLS (N-terminal Cys) [reference compound]					inhibition in in vitro competition ELISA, mAb “Frida” (in words): inhibiting in vitro
C-FGFPAHVFIDWLQSLN (N-terminal cysteine; CETP mimotope) [p4474]	0.179	1.452			
C-DFGFPAHVFIDWLQSLS (N-terminal cysteine; CETP mimotope) [p4480]	0.103	0.521			
FGFPAHVYIDWLQSLS-C (C-terminal cysteine; CETP mimotope) [p5067]			0.563	0.217	
C-DFGFPAHVFIDWLQSLN (N-terminal cysteine; CETP mimotope) [p4818]			0.332	0.091	
C-FGFPEHLLVDFLQSLS [p4073, reference compound]	0.094	0.537			inhibition ELISA signal, 2 μg peptide (FIG. 10a): 0.44; inhibition ELISA signal, 20 μg peptide (FIG. 10a): 0.1; inhibition ELISA signal, 2 μg peptide (FIG. 10b): 0.64; inhibition ELISA signal, 20 μg peptide (FIG. 10b): 0.15; inhibition ELISA signal, high (FIG. 18c, coat 1 μM 4073): 0.088; inhibition ELISA signal, low (FIG. 18c, coat 1 μM 4073): 0.554; inhibition in in vitro competition ELISA, mAb “Frida” (in words): inhibiting in vitro
C-FGFPAHVSFDWLQSLS (N-terminal cysteine; CETP mimotope) [p4476]	1.417	2.000			
